Reference: patent US10100058B2, “Fused heterocyclic compounds as CaM kinase inhibitors” (Gilead Sciences, Inc., priority 2016, dated 2018)

Biological target: recombinant CaMKIIδ (Homo sapiens (Human), UniProt Q13557)
Assay: CaMKIIδ biochemical assay (HTRF)
Conditions: 10 pM CaMKIIδ, 110 nM calmodulin, 12 μM ATP, 1 hour; read-out: CAMKIID-HTRF-384V2 (IC50 - nM)
Protocol: CaMKIIδ Biochemical Assay
The biochemical activity of recombinant CaMKIIδ was measured by monitoring the phosphorylation of a target peptide using Homogenous Time Resolved Fluorescence (HTRF) technology from CisBio Bioassays.

IC50 | SMILES
7.36 nM | N[C@@H]1CCC[C@H]2CCCN(C(=O)c3ccnc(-c4cnn5ccc(-c6ccccc6)nc45)c3)[C@H]21 [Example 98, ((4aS,8R,8aR)-8-aminooctahydroquinolin-1(2H)-yl)(2-(5-phenylpyrazolo[1,5-a]pyrimidin-3-yl)pyridin-4-yl)methanone]
6.98 nM | N[C@H]1CC[C@@H]2CCCN(C(=O)c3ccnc(-c4cnn5ccc(-c6ccccc6)nc45)c3)[C@@H]21 [Example 99, ((4aS,7S,7aS)-7-aminooctahydro-1H-cyclopenta[b]pyridin-1-yl)(2-(5-phenylpyrazolo[1,5-a]pyrimidin-3-yl)pyridin-4-yl)methanone]
9.54 nM | O=C(c1ccnc(-c2cnn3ccc(-c4cccs4)nc23)c1)N1CCC[C@@H]2CCNC[C@@H]21 [Example 101, ((4aR,8aR)-octahydro-1,7-naphthyridin-1(2H)-yl)(2-(5-(thiophen-2-yl)pyrazolo[1,5-a]pyrimidin-3-yl)pyridin-4-yl)methanone]
0.04 nM | CCN(CC)[C@@H](C)CNC(=O)c1cc(N)nc(-c2cnn3ccc(-c4cccs4)nc23)c1 [Example 102, (S)-2-amino-N-(2-(diethylamino)propyl)-6-(5-(thiophen-2-yl)pyrazolo[1,5-a]pyrimidin-3-yl)isonicotinamide]
0.52 nM | CCN(CC)[C@@H](C)CNC(=O)c1cc(Cl)nc(-c2cnn3ccc(-c4cccs4)nc23)c1 [Example 103, (S)-2-chloro-N-(2-(diethylamino)propyl)-6-(5-(thiophen-2-yl)pyrazolo[1,5-a]pyrimidin-3-yl)isonicotinamide]
3.96 nM | CCN(CC)[C@@H](C)CNC(=O)c1cc(-c2cnn3ccc(-c4cccs4)nc23)nc(C(C)C)c1 [Example 104, (S)—N-(2-(diethylamino)propyl)-2-isopropyl-6-(5-(thiophen-2-yl)pyrazolo[1,5-a]pyrimidin-3-yl)isonicotinamide]
1.59 nM | CN(C)c1cc(C(=O)N2CCCC[C@@H]2CN)cc(-c2cnn3ccc(-c4cccs4)nc23)n1 [Example 106, (R)-(2-(aminomethyl)piperidin-1-yl)(2-(dimethylamino)-6-(5-(thiophen-2-yl)pyrazolo[1,5-a]pyrimidin-3-yl)pyridin-4-yl)methanone]
5.62 nM | CCN(CC)[C@@H](C)CNC(=O)c1cc(-c2cnn3ccc(-c4cccs4)nc23)nc(C(F)(F)F)c1 [Example 107, (S)—N-(2-(diethylamino)propyl)-2-(5-(thiophen-2-yl)pyrazolo[1,5-a]pyrimidin-3-yl)-6-(trifluoromethyl)isonicotinamide]
20.8 nM | CN(C)c1cc(C(=O)N2CC[C@H](N)C2)cc(-c2cnn3ccc(-c4cccs4)nc23)n1 [Example 109, (S)-(3-aminopyrrolidin-1-yl)(2-(dimethylamino)-6-(5-(thiophen-2-yl)pyrazolo[1,5-a]pyrimidin-3-yl)pyridin-4-yl)methanone]
7.6 nM | COc1cc(C(=O)N2CC[C@H](N)C2)cc(-c2cnn3ccc(-c4cccs4)nc23)n1 [Example 110, (S)-(3-aminopyrrolidin-1-yl)(2-methoxy-6-(5-(thiophen-2-yl)pyrazolo[1,5-a]pyrimidin-3-yl)pyridin-4-yl)methanone]
0.05 nM | NC[C@H]1CCCCN1C(=O)c1cc(Cl)nc(-c2cnn3ccc(-c4cccs4)nc23)c1 [Example 111, (R)-(2-(aminomethyl)piperidin-1-yl)(2-chloro-6-(5-(thiophen-2-yl)pyrazolo[1,5-a]pyrimidin-3-yl)pyridin-4-yl)methanone]
0.14 nM | CCN(CC)[C@@H](C)CNC(=O)c1cc(OC)nc(-c2cnn3ccc(-c4cccs4)nc23)c1 [Example 112, (S)—N-(2-(diethylamino)propyl)-2-methoxy-6-(5-(thiophen-2-yl)pyrazolo[1,5-a]pyrimidin-3-yl)isonicotinamide]
41.9 nM | NC[C@@H]1CCCCN1C(=O)c1cc(Cl)nc(-c2cnn3ccc(-c4cccs4)nc23)c1 [Example 113, (S)-(2-(aminomethyl)piperidin-1-yl)(2-chloro-6-(5-(thiophen-2-yl)pyrazolo[1,5-a]pyrimidin-3-yl)pyridin-4-yl)methanone]
0.5 nM | CCN(CC)[C@@H](C)CNC(=O)c1cc(N)nc(-c2cnn3ccc(-c4ccccc4)nc23)c1 [Example 114, (S)-2-amino-N-(2-(diethylamino)propyl)-6-(5-phenylpyrazolo[1,5-a]pyrimidin-3-yl)isonicotinamide]
1.41 nM | Cc1cc(C(=O)N2CCCC[C@@H]2CN)cc(-c2cnn3ccc(-c4ccccc4)nc23)n1 [Example 115, (R)-(2-(aminomethyl)piperidin-1-yl)(2-methyl-6-(5-phenylpyrazolo[1,5-a]pyrimidin-3-yl)pyridin-4-yl)methanone]
5.89 nM | NC[C@H]1CCCCN1C(=O)c1cc(-c2cnn3ccc(-c4ccccc4)nc23)nc(C(F)(F)F)c1 [Example 116, (R)-(2-(aminomethyl)piperidin-1-yl)(2-(5-phenylpyrazolo[1,5-a]pyrimidin-3-yl)-6-(trifluoromethyl)pyridin-4-yl)methanone]
8.08 nM | NC[C@H]1CCCCN1C(=O)c1cc(-c2cnn3ccc(-c4ccccc4)nc23)nc(C2CC2)c1 [Example 117, (R)-(2-(aminomethyl)piperidin-1-yl)(2-cyclopropyl-6-(5-phenylpyrazolo[1,5-a]pyrimidin-3-yl)pyridin-4-yl)methanone]
5.29 nM | CN(C)c1cc(C(=O)N2CCCC[C@@H]2CN)cc(-c2cnn3ccc(-c4ccccc4)nc23)n1 [Example 118, (R)-(2-(aminomethyl)piperidin-1-yl)(2-(dimethylamino)-6-(5-phenylpyrazolo[1,5-a]pyrimidin-3-yl)pyridin-4-yl)methanone]
71 nM | CCN[C@@H](C)CNC(=O)c1cc(CC)nc(-c2cnn3ccc(-c4ccccc4)nc23)c1 [Example 119, (S)-2-ethyl-N-(2-(ethylamino)propyl)-6-(5-phenylpyrazolo[1,5-a]pyrimidin-3-yl)isonicotinamide]
41.8 nM | CCN[C@@H](C)CNC(=O)c1cc(C)nc(-c2cnn3ccc(-c4ccccc4)nc23)c1 [Example 120, (S)—N-(2-(ethylamino)propyl)-2-methyl-6-(5-phenylpyrazolo[1,5-a]pyrimidin-3-yl)isonicotinamide]
15.7 nM | CCN[C@@H](C)CNC(=O)c1cc(N)nc(-c2cnn3ccc(-c4ccccc4)nc23)c1 [Example 121, (S)-2-amino-N-(2-(ethylamino)propyl)-6-(5-phenylpyrazolo[1,5-a]pyrimidin-3-yl)isonicotinamide]
4.61 nM | CCN[C@@H](C)CNC(=O)c1cc(-c2cnn3ccc(-c4ccccc4)nc23)nc(C(C)C)c1 [Example 122, (S)—N-(2-(ethylamino)propyl)-2-isopropyl-6-(5-phenylpyrazolo[1,5-a]pyrimidin-3-yl)isonicotinamide]
94.7 nM | CCN[C@@H](C)CNC(=O)c1cc(-c2cnn3ccc(-c4ccccc4)nc23)nc(C2CC2)c1 [Example 123, (S)-2-cyclopropyl-N-(2-(ethylamino)propyl)-6-(5-phenylpyrazolo[1,5-a]pyrimidin-3-yl)isonicotinamide]
17.1 nM | CCN[C@@H](C)CNC(=O)c1cc(Cl)nc(-c2cnn3ccc(-c4ccccc4)nc23)c1 [Example 124, (S)-2-chloro-N-(2-(ethylamino)propyl)-6-(5-phenylpyrazolo[1,5-a]pyrimidin-3-yl)isonicotinamide]
267 nM | CN(C)c1cc(C(=O)N2CC[C@H](N)C2)cc(-c2cnn3ccc(-c4ccccc4)nc23)n1 [Example 125, (S)-(3-aminopyrrolidin-1-yl)(2-(dimethylamino)-6-(5-phenylpyrazolo[1,5-a]pyrimidin-3-yl)pyridin-4-yl)methanone]
65.6 nM | COc1cc(C(=O)N2CC[C@H](N)C2)cc(-c2cnn3ccc(-c4ccccc4)nc23)n1 [Example 126, (S)-(3-aminopyrrolidin-1-yl)(2-methoxy-6-(5-phenylpyrazolo[1,5-a]pyrimidin-3-yl)pyridin-4-yl)methanone]
0.22 nM | NC[C@H]1CCCCN1C(=O)c1cc(Cl)nc(-c2cnn3ccc(-c4ccccc4)nc23)c1 [Example 127, (R)-(2-(aminomethyl)piperidin-1-yl)(2-chloro-6-(5-phenylpyrazolo[1,5-a]pyrimidin-3-yl)pyridin-4-yl)methanone]
266 nM | CC(C)(C)c1cc(C(=O)N2CCCC[C@@H]2CN)cc(-c2cnn3ccc(-c4ccccc4)nc23)n1 [Example 130, (R)-(2-(aminomethyl)piperidin-1-yl)(2-(tert-butyl)-6-(5-phenylpyrazolo[1,5-a]pyrimidin-3-yl)pyridin-4-yl)methanone]
56.1 nM | Cc1cc(C(=O)N2CCC[C@@H]2CN)cc(-c2cnn3ccc(-c4ccccc4)nc23)n1 [Example 131, (R)-(2-(aminomethyl)pyrrolidin-1-yl)(2-methyl-6-(5-phenylpyrazolo[1,5-a]pyrimidin-3-yl)pyridin-4-yl)methanone]
32.7 nM | COc1cc(C(=O)N2CCCC[C@@H]2CN)cc(-c2cnn3ccc(-c4ccccc4)nc23)n1 [Example 132, (R)-(2-(aminomethyl)piperidin-1-yl)(2-methoxy-6-(5-phenylpyrazolo[1,5-a]pyrimidin-3-yl)pyridin-4-yl)methanone]

SMILES | IC50
O=C(c1ccnc(-c2cnn3ccc(-c4ccccc4)nc23)c1)N1C[C@H]2CC[C@@H](C1)N2 [Example 100, ((1R,5S)-3,8-diazabicyclo[3.2.1]octan-3-yl)(2-(5-phenylpyrazolo[1,5-a]pyrimidin-3-yl)pyridin-4-yl)methanone] | 29.8 nM
Nc1cc(C(=O)N2C3CCNCC2CC3)cc(-c2cnn3ccc(-c4ccccc4)nc23)n1 (stereo not drawn) [Example 128, (2-amino-6-(5-phenylpyrazolo[1,5-a]pyrimidin-3-yl)pyridin-4-yl)(-3,9-diazabicyclo[4.2.1]nonan-9-yl)methanone] | 27.8 nM
Nc1cc(C(=O)N2C3CCNCC2CC3)cc(-c2cnn3ccc(-c4cccs4)nc23)n1 (stereo not drawn) [Example 129, (2-amino-6-(5-(thiophen-2-yl)pyrazolo[1,5-a]pyrimidin-3-yl)pyridin-4-yl)(-3,9-diazabicyclo[4.2.1]nonan-9-yl)methanone] | 1.55 nM
